Reference: ChEMBL document CHEMBL5528039, “Discovery of a Macrocyclic Influenza Cap-Dependent Endonuclease Inhibitor” (J Med Chem, 2024)

What was measured:
Influenza A virus [1] = assay: Antiviral activity against Influenza A virus A/PR/8/34 (H1N1) infected in MDCK cells assessed as reduction in virus-induced cytopathic effect incubated for 5 days by CCK8 based microplate spectrophotometric analysis; assay type: functional, organism-based; settings: 120 h; for EC90: time 5 day
[2] = Inhibition of influenza A virus A/WSN/33 (H1N1) RNA polymerase transfected in HEK293T/17 cells incubated for 24 hrs by dual luciferase reporter gene assay; assay type: cell-based; settings: HEK293T/17, 24 h
Influenza A virus [3] = assay: Antiviral activity against Influenza A virus A/California/07/2009 (H1N1) infected in MDCK cells assessed as reduction in virus-induced cytopathic effect incubated for 5 days by CCK8 based microplate spectrophotometric analysis; assay type: functional, organism-based; settings: 120 h
Influenza A virus [4] = assay: Antiviral activity against Influenza A virus A/California/2/2014 (H3N2) infected in MDCK cells assessed as reduction in virus-induced cytopathic effect incubated for 5 days by CCK8 based microplate spectrophotometric analysis; assay type: functional, organism-based; settings: 120 h
Influenza B virus [5] = assay: Antiviral activity against Influenza B virus B/Lee/40 infected in MDCK cells assessed as reduction in virus-induced cytopathic effect incubated for 5 days by CCK8 based microplate spectrophotometric analysis; assay type: functional, organism-based; settings: B/Lee/40, MDCK, 120 h
Influenza B virus [6] = assay: Antiviral activity against Influenza B virus B/Florida/78/2015 infected in MDCK cells assessed as reduction in virus-induced cytopathic effect incubated for 5 days by CCK8 based microplate spectrophotometric analysis; assay type: functional, organism-based; settings: B/Florida/78/2015, MDCK, 120 h
Influenza B virus [7] = assay: Potency index, ratio of baloxavir EC50 to test compound EC50 for antiviral activity against Influenza B virus B/Lee/40 infected in MDCK cells assessed as reduction in virus-induced cytopathic effect incubated for 5 days by CCK8 based microplate spectrophotometric analysis; assay type: functional; settings: time 5 day
Influenza B virus [8] = assay: Potency index, ratio of baloxavir EC50 to test compound EC50 for antiviral activity against Influenza B virus B/Florida/78/2015 infected in MDCK cells assessed as reduction in virus-induced cytopathic effect incubated for 5 days by CCK8 based microplate spectrophotometric analysis; assay type: functional; settings: time 5 day
COLO 205 = assay: Cytotoxicity against human COLO 205 cells incubated for 3 days by CellTiter-Glo assay; assay type: functional; settings: COLO 205, 72 h, time 3 day
HepG2 = assay: Cytotoxicity against human HepG2 cells incubated for 3 days by CellTiter-Glo assay; assay type: functional; settings: HepG2, 72 h, time 3 day
HEK293 = assay: Cytotoxicity against HEK293 cells incubated for 3 days by CellTiter-Glo assay; assay type: functional; settings: Homo sapiens, HEK293, 72 h; time 3 day
MRC5 = assay: Cytotoxicity against human MRC5 cells incubated for 3 days by CellTiter-Glo assay; assay type: functional; settings: MRC5, 72 h, time 3 day
A-375 = assay: Cytotoxicity against human A-375 cells incubated for 3 days by CellTiter-Glo assay; assay type: functional; settings: A-375, 72 h, time 3 day
MOLT-4 = assay: Cytotoxicity against human MOLT-4 cells incubated for 3 days by CellTiter-Glo assay; assay type: functional; settings: MOLT-4, 72 h, time 3 day
HEp-2 = assay: Cytotoxicity against human HEp-2 cells incubated for 3 days by CellTiter-Glo assay; assay type: functional; settings: HEp-2, 72 h, time 3 day
H1-HeLa = assay: Cytotoxicity against human H1-HeLa cells incubated for 3 days by CellTiter-Glo assay; assay type: functional; settings: 72 h, time 3 day
CCRF-CEM = assay: Cytotoxicity against human CCRF-CEM cells incubated for 3 days by CellTiter-Glo assay; assay type: functional; settings: 72 h, time 3 day
[9] = Selectivity index, ratio of CC50 for human MOLT-4 cells to EC50 for antiviral activity against Influenza B virus B/Lee/40 infected in MDCK cells; assay type: functional
[10] = Protein binding in mouse plasma assessed as unbound fraction at 400 uM incubated for 4 hrs by LC-MS/MS analysis; assay type: ADME, cell-free
[11] = Protein binding in dog plasma assessed as unbound fraction at 400 uM incubated for 4 hrs by LC-MS/MS analysis; assay type: ADME, cell-free, Canis lupus familiaris
[12] = Protein binding in cynomolgus monkey plasma assessed as unbound fraction at 400 uM incubated for 4 hrs by LC-MS/MS analysis; assay type: ADME, cell-free, Macaca fascicularis
[13] = Protein binding in human plasma assessed as unbound fraction at 400 uM incubated for 4 hrs by LC-MS/MS analysis; assay type: ADME, cell-free
[14] = Metabolic stability in mouse liver microsomes assessed as intrinsic clearance at 1 uM measured upto 60 mins in presence of NADPH by LC-MS/MS analysis; assay type: ADME, Microsome; settings: 1 h
[15] = Metabolic stability in dog liver microsomes assessed as intrinsic clearance at 1 uM measured upto 60 mins in presence of NADPH by LC-MS/MS analysis; assay type: ADME, Canis lupus familiaris, Microsome; settings: 1 h
[16] = Metabolic stability in cynomolgus monkey liver microsomes assessed as intrinsic clearance at 1 uM measured upto 60 mins in presence of NADPH by LC-MS/MS analysis; assay type: ADME, Macaca fascicularis, Microsome; settings: 1 h
[17] = Metabolic stability in human liver microsomes assessed as intrinsic clearance at 1 uM measured upto 60 mins in presence of NADPH by LC-MS/MS analysis; assay type: ADME, Microsome; settings: 1 h
[18] = Clearance in BALB/c mouse at 2 mg/kg, iv measured after 24 hrs by LC-MS/MS analysis; assay type: ADME, organism-based; settings: in vivo
[19] = Volume of distribution at steady state in BALB/c mouse at 2 mg/kg, iv measured after 24 hrs by LC-MS/MS analysis; assay type: ADME, organism-based; settings: in vivo, read-out: Vdss
[20] = Half-life in BALB/c mouse at 2 mg/kg, iv measured after 24 hrs by LC-MS/MS analysis; assay type: ADME, organism-based; settings: in vivo
[21] = AUC (0 to last) in BALB/c mouse at 2 mg/kg, iv measured after 24 hrs by LC-MS/MS analysis; assay type: ADME, organism-based; settings: in vivo
[22] = Clearance in Beagle dog at 0.25 mg/kg, iv measured after 24 hrs by LC-MS/MS analysis; assay type: ADME, organism-based, Canis lupus familiaris; settings: in vivo
[23] = Volume of distribution at steady state in Beagle dog at 0.25 mg/kg, iv measured after 24 hrs by LC-MS/MS analysis; assay type: ADME, organism-based, Canis lupus familiaris; settings: in vivo, read-out: Vdss
[24] = Half-life in Beagle dog at 0.25 mg/kg, iv measured after 24 hrs by LC-MS/MS analysis; assay type: ADME, organism-based, Canis lupus familiaris; settings: in vivo
[25] = AUC (0 to last) in Beagle dog at 0.25 mg/kg, iv measured after 24 hrs by LC-MS/MS analysis; assay type: ADME, organism-based, Canis lupus familiaris; settings: in vivo
[26] = Clearance in cynomolgus monkey at 0.25 mg/kg, iv measured after 24 hrs by LC-MS/MS analysis; assay type: ADME, organism-based, Macaca fascicularis; settings: in vivo
[27] = Volume of distribution at steady state in cynomolgus monkey at 0.25 mg/kg, iv measured after 24 hrs by LC-MS/MS analysis; assay type: ADME, organism-based, Macaca fascicularis; settings: in vivo, read-out: Vdss
[28] = Half-life in cynomolgus monkey at 0.25 mg/kg, iv measured after 24 hrs by LC-MS/MS analysis; assay type: ADME, organism-based, Macaca fascicularis; settings: in vivo
[29] = AUC (0 to last) in cynomolgus monkey at 0.25 mg/kg, iv measured after 24 hrs by LC-MS/MS analysis; assay type: ADME, organism-based, Macaca fascicularis; settings: in vivo

## CN1C(=O)c2c(O)c(=O)ccn2N2[C@H](c3ccc(F)cc3)c3cc(F)c(F)cc3OCC[C@@H]12
Influenza A virus [1]
  EC50: 14 nM
  EC90: 24 nM

## CN1C(=O)c2c(O)c(=O)ccn2N2[C@H](c3ccccc3Br)c3cc(F)c(F)cc3OCC[C@@H]12 (racemic)
Influenza A virus [1]
  EC50: 11 nM
  EC90: 18 nM

## CN1C(=O)c2c(O)c(=O)ccn2N2[C@@H](c3ccccc3)c3ccccc3OCC[C@H]12
Influenza A virus [1]
  EC50: > 500 nM
  EC90: > 500 nM

## CC(C)N1C(=O)c2c(O)c(=O)ccn2N2[C@H](c3ccccc3)c3ccccc3OCC[C@@H]12 (racemic)
Influenza A virus [1]
  EC50: 53 nM
  EC90: 105 nM

## CN1C(=O)c2c(O)c(=O)ccn2N2[C@H](c3ccc(F)c(F)c3)c3cc(F)c(F)cc3OCC[C@@H]12
Influenza A virus [1]
  EC50: 25 nM
  EC90: 42 nM

## CN1C(=O)c2c(O)c(=O)ccn2N2[C@H](c3ccccc3)c3ccc(F)c(F)c3OCC[C@@H]12 (racemic)
Influenza A virus [1]
  EC50: 50 nM
  EC90: 93 nM

## CN1C(=O)c2c(O)c(=O)ccn2N2[C@H](c3ccccc3)c3cc(F)c(F)cc3OCC[C@@H]12
Influenza A virus [1]
  EC50: 7.2 nM
  EC90: 12 nM
[2]
  EC50: 12.3 nM
Influenza A virus [3]
  EC50: 2.6 nM
Influenza A virus [3]; time 5 day
  EC90: 4.2 nM
Influenza A virus [4]
  EC50: 1.2 nM
Influenza A virus [4]; time 5 day
  EC90: 3.2 nM
Influenza B virus [5]
  EC50: 8.5 nM
Influenza B virus [5]; time 5 day
  EC90: 16 nM
Influenza B virus [6]
  EC50: 0.9 nM
Influenza B virus [6]; time 5 day
  EC90: 1.6 nM
Influenza B virus [7]
  Ratio EC50: 3
Influenza B virus [8]
  Ratio EC50: 3
COLO 205
  CC50: 7040 nM
HepG2
  CC50: 5190 nM
HEK293
  CC50: 20300 nM
MRC5
  CC50: 20000 nM
A-375
  CC50: 13300 nM
MOLT-4
  CC50: 4130 nM
HEp-2
  CC50: 12400 nM
H1-HeLa
  CC50: 9770 nM
CCRF-CEM
  CC50: 6480 nM
[9]
  Ratio CC50/EC50: >485
[10]
  fraction unbound at 4 h, 400 µM: 0.122
[11]
  fraction unbound at 4 h, 400 µM: 0.218
[12]
  fraction unbound at 4 h, 400 µM: 0.382
[13]
  fraction unbound at 4 h, 400 µM: 0.103
[14]
  CLH: 0.1106 mL/min/kg
[15]
  CLH: 0.0138 mL/min/kg
[16]
  CLH: < 0.013 mL/min/kg
[17]
  CLint: < 8.6 µL/min/mg
[18]
  clearance: 57.4 mL/min/kg
[19]
  Vd: 4.41 L/kg
[20]
  half-life: 1.2 h
[21]
  AUC(0-t) at 24 h: 1.32 µM·h
[22]
  clearance: 20.8 mL/min/kg
[23]
  Vd: 3.74 L/kg
[24]
  half-life: 2.6 h
[25]
  AUC(0-t) at 24 h: 0.576 µM·h
[26]
  clearance: 20.8 mL/min/kg
[27]
  Vd: 3.68 L/kg
[28]
  half-life: 2.2 h
[29]
  AUC(0-t) at 24 h: 0.458 µM·h
